From PMC12370890 (Nature Communications, 2025)

Test system: Tcie612
Assay: GC-MS of hexane extract, Michaelis-Menten fit
Assay type: biochemical, Trichoderma citrinoviride
Conditions: 25 mM MgCl2, 50 mM Tris-HCl pH 7.5, 100 mM KCl, 5 mM DTT, 5 mM hydroxypropyl-β-cyclodextrin, 30 °C, 30 min

- Km: 86.1 ± 8.19 µM
Compound: CC(C)=CCC/C(C)=C/CC/C(C)=C/CC/C(C)=C/COP(=O)(O)OP(=O)(O)O [GGPP]
